Molecules are shown by their SMILES.

As usually defined, the melting point is the temperature of the solid-liquid transition. Consider `Cc1cc(N)nc(CCc2nc3cc(-c4ccc(Cl)cc4)cnc3[nH]2)c1.Cl`, for which the melting point is 228 to 230 °C. For `Cc1cc(N)nc(CCc2nc3cc(-c4ccc(S(=O)(=O)N5CCCCC5)cc4)cnc3[nH]2)c1` [compound 19, 4-Methyl-6-(2-{6-[4-(piperidine-1-sulfonyl)-phenyl]-3H-imidazo[4,5-b]pyridin-2-yl}-ethyl)-pyridin-2-ylamine] the value was 233 °C; for `Cc1cc(N)nc(CCc2nc3cc(-c4ccc(S(=O)(=O)N5CCN(C)CC5)cc4)cnc3[nH]2)c1` [compound 21, 4-Methyl-6-(2-{6-[4-(4-methyl-piperazine-1-sulfonyl)-phenyl]-3H-imidazo[4,5-b]pyridin-2-yl}-ethyl)-pyridin-2-ylamine], 135 °C; for `Cc1cc(N)nc(CC(C)c2nc3cccnc3[nH]2)c1` (racemic) [compound 2, (R,S)-2-[3-(2-Amino-4-methylpyridin-6-yl)prop-2-yl]-3H-imidazo[4,5-b]pyridine], 48 °C. `Cc1cc(N)nc(CCc2nc3cc(-c4ccc(C#N)cc4)cnc3[nH]2)c1` [compound 6, 2-[2-(2-Amino-4-methylpyridin-6-yl)ethyl]-6-(4-cyano-phenyl)-3H-imidazo[4,5-b]pyridine] showed a melting point of 218 °C. The molecule `Cc1cc(N)nc(CCc2nc3cc(-c4ccc(S(=O)(=O)N5CCCC5)cc4)cnc3[nH]2)c1` [compound 18, 4-Methyl-6-(2-{6-[4-(pyrrolidine-1-sulfonyl)-phenyl]-3H-imidazo[4,5-b]pyridin-2-yl}-ethyl)-pyridin-2-ylamine] gave a melting point of 171 °C. Under `CC(=O)O.Cc1cc(N)nc(CCc2nc3cccnc3[nH]2)c1` stands 54 °C.

Molecule `Cc1cc(N)nc(CCc2nc3cccnc3[nH]2)c1.Cl` came in with a melting point of 136 °C. For `Cc1cc(N)nc(CCc2nc3cc(-c4ccc(S(=O)(=O)N5CCC5)cc4)cnc3[nH]2)c1` [compound 17, 6-(2-{6-[4-(Azetidine-1-sulfonyl)-phenyl]-3H-imidazo[4,5-b]pyridin-2-yl}-ethyl)-4-methyl-pyridin-2-ylamine] the value was 168 °C.

The molecule `Cc1cc(N)nc(CCc2nc3cc(-c4ccccc4)cnc3[nH]2)c1` [compound 5, 2-[2-(2-Amino-4-methylpyridin-6-yl)ethyl]-6-phenyl-3H-imidazo[4,5-b]pyridine] registered a melting point of 230 °C. For `Cc1cc(N)nc(CCc2nc3cc(-c4cccc(O)c4)cnc3[nH]2)c1` [compound 16, 3-{2-[2-(6-Amino-4-methyl-pyridin-2-yl)-ethyl]-3H-imidazo[4,5-b]pyridin-6-yl}-phenol] the value was 162 °C; for `Cc1cc(N)nc(CCc2nc3cc(-c4cc(Cl)cc(Cl)c4)cnc3[nH]2)c1` [compound 14, 6-{2-[6-(3,5-Dichloro-phenyl)-3H-imidazo[4,5-b]pyridin-2-yl]-ethyl}-4-methyl-pyridin-2-ylamine], 224 °C; for `Cc1cc(N)nc(CCc2nc3cccnc3[nH]2)c1` [compound 1, 2-[2-(2-Amino-4-methylpyridin-6-yl)ethyl]-3H-imidazo[4,5-b]pyridine], 45 to 47 °C. For `Cc1cc(N)nc(CCc2nc3cc(Br)cnc3[nH]2)c1` [compound 4, 2-[2-(2-Amino-4-methylpyridin-6-yl)ethyl]-6-bromo-3H-imidazo[4,5-b]pyridine] the value was 216 °C; for `Cc1cc(N)nc(CCc2nc3cc(-c4cccc(OCc5ccccc5)c4)cnc3[nH]2)c1` [compound 13, 6-{2-[6-(3-Benzyloxy-phenyl)-3H-imidazo[4,5-b]pyridin-2-yl]-ethyl}-4-methyl-pyridin-2-ylamine], 181 °C. Under `Cc1ccc(-c2cnc3[nH]c(CCc4cc(C)cc(N)n4)nc3c2)cc1.Cl` stands 186 °C; under `Cc1cc(N)nc(CCc2nc3cc(-c4ccc(OCc5ccccc5)cc4)cnc3[nH]2)c1` [compound 15, 6-{2-[6-(4-Benzyloxy-phenyl)-3H-imidazo[4,5-b]pyridin-2-yl]-ethyl}-4-methyl-pyridin-2-ylamine], 225 °C.

For the origin of these results see patent US7781453B2, “Aminopyridine-derivatives” (Altana Pharma AG, priority 2003, dated 2010).
